# Experimental data from PubChem BioAssay AID1963438 (Molecular Pharmacology Branch, DTP, NCI, 2024).
# System: NCI-H510 multicellular tumor spheroid growth, % test/control
# Experiment: Anticancer human tumor NCI-H510 cell line growth inhibition [Asc];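 further: spheroids exposed to agents for 7 days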;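 on viability, T/C: 100% = DMSO vehicle control wells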
# Conditions: for IC50: curve of first compound; for viability, T/C: stronger effect = lower value
# How it was run: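 Stromal components (HUVEC and hMSC) are co-assembled with the cancer cells into multicellular spheroids. Drugs are then added singly or paired, at concentrations falling by half-log increments from a clinically achievable maximum, capped at 10 microM without known Cmax.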
smiles,measurement,setting,value
C=CC(=O)N1CCN(c2nc(=O)n(-c3c(C)ccnc3C(C)C)c3nc(-c4c(O)cccc4F)c(F)cc23)C(C)C1 (configuration not stated) + Cc1c(S(C)(=O)=O)c(-c2cc(F)cc(N3CCN(c4ccc(NS(=O)(=O)c5ccc(NC(CCN6CCC(C(=O)OCCCP(=O)(O)O)CC6)CSc6ccccc6)c(S(=O)(=O)C(F)(F)F)c5)cc4)CC3)c2)c(-c2ccc(Cl)cc2)n1C(C)C,IC50,second compound 0.1 µM,> 10 µM
same,IC50,second compound 0.316 µM,> 10 µM
same,IC50,second compound 1 µM,> 10 µM
same,IC50,second compound 3.16 µM,> 10 µM
same,IC50,second compound 10 µM,> 10 µM
same,"viability, T/C","second compound 0.1 µM, first compound 0.0316 µM",102%
same,"viability, T/C","second compound 0.1 µM, first compound 0.1 µM",110%
same,"viability, T/C","second compound 0.1 µM, first compound 0.316 µM",124%
same,"viability, T/C","second compound 0.1 µM, first compound 1 µM",94.7%
same,"viability, T/C","second compound 0.1 µM, first compound 3.16 µM",86.3%
same,"viability, T/C","second compound 0.1 µM, first compound 10 µM",98.4%
same,"viability, T/C","second compound 0.316 µM, first compound 0.0316 µM",106%
same,"viability, T/C","second compound 0.316 µM, first compound 0.1 µM",103%
same,"viability, T/C","second compound 0.316 µM, first compound 0.316 µM",115%
same,"viability, T/C","second compound 0.316 µM, first compound 1 µM",103%
same,"viability, T/C","second compound 0.316 µM, first compound 3.16 µM",109%
same,"viability, T/C","second compound 0.316 µM, first compound 10 µM",86%
same,"viability, T/C","second compound 1 µM, first compound 0.0316 µM",85.6%
same,"viability, T/C","second compound 1 µM, first compound 0.1 µM",89.5%
same,"viability, T/C","second compound 1 µM, first compound 0.316 µM",115%
same,"viability, T/C","second compound 1 µM, first compound 1 µM",121%
same,"viability, T/C","second compound 1 µM, first compound 3.16 µM",98.1%
same,"viability, T/C","second compound 1 µM, first compound 10 µM",79.3%
same,"viability, T/C","second compound 3.16 µM, first compound 0.0316 µM",80%
same,"viability, T/C","second compound 3.16 µM, first compound 0.1 µM",100%
same,"viability, T/C","second compound 3.16 µM, first compound 0.316 µM",117%
same,"viability, T/C","second compound 3.16 µM, first compound 1 µM",118%
same,"viability, T/C","second compound 3.16 µM, first compound 3.16 µM",79.7%
same,"viability, T/C","second compound 3.16 µM, first compound 10 µM",108%
same,"viability, T/C","second compound 10 µM, first compound 0.0316 µM",102%
same,"viability, T/C","second compound 10 µM, first compound 0.1 µM",106%
same,"viability, T/C","second compound 10 µM, first compound 0.316 µM",97.8%
same,"viability, T/C","second compound 10 µM, first compound 1 µM",100%
same,"viability, T/C","second compound 10 µM, first compound 3.16 µM",89.4%
same,"viability, T/C","second compound 10 µM, first compound 10 µM",81.9%
Cc1nc(N2CCC3(CC2)COC(C)C3N)c(CO)nc1Sc1ccnc(N)c1Cl (configuration not stated) + CNC(C)C(=O)NC1CN(S(=O)(=O)c2cccc(S(=O)(=O)N3CCC4CCC(C(=O)NC(c5ccccc5)c5ccccc5)N4C(=O)C(NC(=O)C(C)NC)C3)c2)CCC2CCC(C(=O)NC(c3ccccc3)c3ccccc3)N2C1=O,IC50,second compound 0.00316 µM,> 3 µM
same,IC50,second compound 0.01 µM,> 3 µM
same,IC50,second compound 0.0316 µM,> 3 µM
same,IC50,second compound 0.1 µM,> 3 µM
same,IC50,second compound 0.316 µM,> 3 µM
same,IC50,second compound 1 µM,> 3 µM
same,"viability, T/C","second compound 0.00316 µM, first compound 0.00949 µM",103%
same,"viability, T/C","second compound 0.00316 µM, first compound 0.03 µM",95.3%
same,"viability, T/C","second compound 0.00316 µM, first compound 0.0949 µM",104%
same,"viability, T/C","second compound 0.00316 µM, first compound 0.3 µM",89%
same,"viability, T/C","second compound 0.00316 µM, first compound 0.949 µM",98.5%
same,"viability, T/C","second compound 0.00316 µM, first compound 3 µM",106%
same,"viability, T/C","second compound 0.01 µM, first compound 0.00949 µM",102%
same,"viability, T/C","second compound 0.01 µM, first compound 0.03 µM",108%
same,"viability, T/C","second compound 0.01 µM, first compound 0.0949 µM",99.9%
same,"viability, T/C","second compound 0.01 µM, first compound 0.3 µM",105%
same,"viability, T/C","second compound 0.01 µM, first compound 0.949 µM",93.9%
same,"viability, T/C","second compound 0.01 µM, first compound 3 µM",102%
same,"viability, T/C","second compound 0.0316 µM, first compound 0.00949 µM",97.9%
same,"viability, T/C","second compound 0.0316 µM, first compound 0.03 µM",88.3%
same,"viability, T/C","second compound 0.0316 µM, first compound 0.0949 µM",95.9%
same,"viability, T/C","second compound 0.0316 µM, first compound 0.3 µM",99.8%
same,"viability, T/C","second compound 0.0316 µM, first compound 0.949 µM",94.7%
same,"viability, T/C","second compound 0.0316 µM, first compound 3 µM",111%
same,"viability, T/C","second compound 0.1 µM, first compound 0.00949 µM",99.3%
same,"viability, T/C","second compound 0.1 µM, first compound 0.03 µM",99.2%
same,"viability, T/C","second compound 0.1 µM, first compound 0.0949 µM",109%
same,"viability, T/C","second compound 0.1 µM, first compound 0.3 µM",88.1%
same,"viability, T/C","second compound 0.1 µM, first compound 0.949 µM",99.5%
same,"viability, T/C","second compound 0.1 µM, first compound 3 µM",106%
same,"viability, T/C","second compound 0.316 µM, first compound 0.00949 µM",91.8%
same,"viability, T/C","second compound 0.316 µM, first compound 0.03 µM",117%
same,"viability, T/C","second compound 0.316 µM, first compound 0.0949 µM",94.9%
same,"viability, T/C","second compound 0.316 µM, first compound 0.3 µM",98.5%
same,"viability, T/C","second compound 0.316 µM, first compound 0.949 µM",94.7%
same,"viability, T/C","second compound 0.316 µM, first compound 3 µM",95%
same,"viability, T/C","second compound 1 µM, first compound 0.00949 µM",106%
same,"viability, T/C","second compound 1 µM, first compound 0.03 µM",91.1%
same,"viability, T/C","second compound 1 µM, first compound 0.0949 µM",104%
same,"viability, T/C","second compound 1 µM, first compound 0.3 µM",94.3%
same,"viability, T/C","second compound 1 µM, first compound 0.949 µM",90.6%
same,"viability, T/C","second compound 1 µM, first compound 3 µM",100%
